Laboratory results taken from patent US20200347043A1, “MODULATORS OF THE INTEGRATED STRESS PATHWAY” (Calico Life Sciences LLC, priority 2019, published 2020).

Test system: HEK293T cells carrying the ATF4 luciferase reporter
Experiment: ATF4-Luc assay (in vitro model of VWMD)
Format: cell-based, human
Conditions: Homo sapiens, HEK-293T, 1 μg/mL tunicamycin, 7 hours, One Glo luminescence
Procedure, shortened: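 Stable HEK293T line expressing firefly luciferase behind the human ATF4 5′-UTR, treated with 1 μg/mL tunicamycin plus compound for 7 hours. Luminescence read with One Glo; EC50 determined.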

Compared with `O=C(CO[C@H]1C[C@@H](OC(F)(F)F)C1)N[C@H]1CC[C@H](NC(=O)[C@H]2CC(=O)c3cc(Cl)ccc3O2)CC1` [Compound 213, (2R)-6-chloro-4-oxo-N-[trans-4-(2-{[cis-3-(trifluoromethoxy)cyclobutyl]oxy}acetamido)cyclohexyl]-3,4-dihydro-2H-1-benzopyran-2-carboxamide], `O=C(CO[C@H]1C[C@@H](OC(F)(F)F)C1)N[C@H]1CC[C@H](NC(=O)[C@H]2C[C@@H](O)c3cc(Cl)ccc3O2)CC1` [Compound 214, (2R,4R)-6-chloro-4-hydroxy-N-[trans-4-(2-{[cis-3-(trifluoromethoxy)cyclobutyl]oxy}acetamido)cyclohexyl]-3,4-dihydro-2H-1-benzopyran-2-carboxamide] is lower in EC50: 50 to 250 nM for the first, 10 to 50 nM for the second. The second is the more potent here.

Compared with `O=C(N[C@H]1CC[C@H](C(=O)N[C@H]2C[C@@H](OC(F)(F)F)C2)CC1)[C@H]1C[C@@H](O)c2cc(Cl)ccc2O1` [Compound 215, (2R,4R)-6-chloro-4-hydroxy-N-[trans-4-{[cis-3-(trifluoromethoxy)cyclobutyl]carbamoyl}cyclohexyl]-3,4-dihydro-2H-1-benzopyran-2-carboxamide], `O=C(NC12CCC(C(=O)N[C@H]3C[C@@H](OC(F)(F)F)C3)(CC1)CC2)[C@H]1C[C@@H](O)c2cc(Cl)ccc2O1` [Compound 222, (2R,4R)-6-chloro-4-hydroxy-N-(4-{[cis-3-(trifluoromethoxy)cyclobutyl]carbamoyl}bicyclo[2.2.2]octan-1-yl)-3,4-dihydro-2H-1-benzopyran-2-carboxamide] is higher in EC50: under 10 nM for the first, 10 to 50 nM for the second.

First: O=C1C[C@H](C(=O)NC23CC(C(=O)N[C@H]4C[C@@H](OC(F)(F)F)C4)(C2)C3)Oc2ccc(Cl)cc21 [Compound 216, (2R)-6-chloro-4-oxo-N-(3-{[cis-3-(trifluoromethoxy)cyclobutyl]carbamoyl}bicyclo[1.1.1]pentan-1-yl)-3,4-dihydro-2H-1-benzopyran-2-carboxamide]
Second: O=C1C[C@H](C(=O)NC23CCC(C(=O)N[C@H]4C[C@@H](OC(F)(F)F)C4)(CC2)CC3)Oc2ccc(Cl)cc21 [Compound 221, (2R)-6-chloro-4-oxo-N-(4-{[cis-3-(trifluoromethoxy)cyclobutyl]carbamoyl}bicyclo[2.2.2]octan-1-yl)-3,4-dihydro-2H-1-benzopyran-2-carboxamide]
The EC50 of the first is higher: over 2000 nM for the first, 50 to 250 nM for the second. The second is the more potent here.

First: O=C(NC12CC(c3nc([C@H]4C[C@@H](OC(F)(F)F)C4)no3)(C1)C2)[C@@H]1C[C@@H](O)c2cc(Cl)ccc2O1 [Compound 217, (2S,4R)-6-chloro-4-hydroxy-N-(3-{3-[cis-3-(trifluoromethoxy)cyclobutyl]-1,2,4-oxadiazol-5-yl}bicyclo[1.1.1]pentan-1-yl)-3,4-dihydro-2H-1-benzopyran-2-carboxamide]
Second: O=C(NC12CC(c3nc([C@H]4C[C@@H](OC(F)(F)F)C4)no3)(C1)C2)[C@@H]1C[C@H](O)c2cc(Cl)ccc2O1 [Compound 218, (2S,4S)-6-chloro-4-hydroxy-N-(3-{3-[cis-3-(trifluoromethoxy)cyclobutyl]-1,2,4-oxadiazol-5-yl}bicyclo[1.1.1]pentan-1-yl)-3,4-dihydro-2H-1-benzopyran-2-carboxamide]
The EC50 of the first is lower: 50 to 250 nM for the first, 500 to 2000 nM for the second. The first is the more potent here.

First: O=C(CO[C@H]1C[C@@H](OC(F)(F)F)C1)NC12CCC(NC(=O)[C@H]3C[C@@H](O)c4cc(Cl)ccc4O3)(CC1)[C@@H](O)C2 [Compound 220, (2R,4R)-6-chloro-4-hydroxy-N-[(2S)-2-hydroxy-4-(2-{[cis-3-(trifluoromethoxy)cyclobutyl]oxy}acetamido)bicyclo[2.2.2]octan-1-yl]-3,4-dihydro-2H-1-benzopyran-2-carboxamide]
Second: O=C(CO[C@H]1C[C@@H](OC(F)(F)F)C1)NC12CCC(NC(=O)[C@H]3CC(=O)c4cc(Cl)ccc4O3)(CC1)[C@@H](O)C2 [Compound 223, (2R)-6-chloro-N-[(2S)-2-hydroxy-4-(2-{[cis-3-(trifluoromethoxy)cyclobutyl]oxy}acetamido)bicyclo[2.2.2]octan-1-yl]-4-oxo-3,4-dihydro-2H-1-benzopyran-2-carboxamide]
The EC50 of the first is lower: under 10 nM for the first, 10 to 50 nM for the second. The first is the more potent here.

First: O=C1C[C@H](C(=O)NC23CC(N4CCC(c5ccc(Cl)cc5)C4=O)(C2)C3)Oc2ccc(Cl)cc21 (stereo partly drawn) [Compound 224, (2R)-6-chloro-N-{3-[3-(4-chlorophenyl)-2-oxopyrrolidin-1-yl]bicyclo[1.1.1]pentan-1-yl}-4-oxo-3,4-dihydro-2H-1-benzopyran-2-carboxamide]
Second: O=C(NC12CC(c3nc(-c4ccc(Cl)c(F)c4)no3)(C1)C2)[C@@H]1C[C@@H](O)c2cc(Cl)ccc2O1 [Compound 230, (2S,4R)-6-chloro-N-{3-[3-(4-chloro-3-fluorophenyl)-1,2,4-oxadiazol-5-yl]bicyclo[1.1.1]pentan-1-yl}-4-hydroxy-3,4-dihydro-2H-1-benzopyran-2-carboxamide]
The EC50 of the first is higher: over 2000 nM for the first, 50 to 250 nM for the second.

`O=C(NC12CC(C3=NOC([C@H]4C[C@@H](O)C4)C3)(C1)C2)[C@H]1C[C@@H](O)c2cc(Cl)ccc2O1` (stereo partly drawn) [Compound 227, (2R,4R)-6-chloro-4-hydroxy-N-(3-{5-[cis-3-hydroxycyclobutyl]-4,5-dihydro-1,2-oxazol-3-yl}bicyclo[1.1.1]pentan-1-yl)-3,4-dihydro-2H-1-benzopyran-2-carboxamide] and `O=C(NC12CC(C3=NOC([C@H]4C[C@@H](O)C4)C3)(C1)C2)[C@@H]1C[C@@H](O)c2cc(Cl)ccc2O1` (stereo partly drawn) [Compound 228, (2S,4R)-6-chloro-4-hydroxy-N-(3-{5-[cis-3-hydroxycyclobutyl]-4,5-dihydro-1,2-oxazol-3-yl}bicyclo[1.1.1]pentan-1-yl)-3,4-dihydro-2H-1-benzopyran-2-carboxamide] cannot be ordered by EC50: over 2000 nM for the first, over 2000 nM for the second.

First: O=C(NC12CC(c3nc([C@H]4C[C@@H](OC(F)(F)F)C4)no3)(C1)C2)[C@H]1C[C@@H](O)c2cc(Cl)ccc2O1 [Compound 229, (2R,4R)-6-chloro-4-hydroxy-N-(3-{3-[cis-3-(trifluoromethoxy)cyclobutyl]-1,2,4-oxadiazol-5-yl}bicyclo[1.1.1]pentan-1-yl)-3,4-dihydro-2H-1-benzopyran-2-carboxamide]
Second: O=C(NC12CC(C3=NOC([C@H]4C[C@@H](OC(F)(F)F)C4)C3)(C1)C2)[C@H]1C[C@@H](O)c2cc(Cl)ccc2O1 (stereo partly drawn) [Compound 232, (2R,4R)-6-chloro-4-hydroxy-N-{3-(5-[cis-3-(trifluoromethoxy)cyclobutyl]-4,5-dihydro-1,2-oxazol-3-yl}bicyclo[1.1.1]pentan-1-yl)-3,4-dihydro-2H-1-benzopyran-2-carboxamide]
The EC50 of the first is lower: 10 to 50 nM for the first, 50 to 250 nM for the second. The first is the more potent here.

Compared with `O=C(NC12CC(n3cnc(-c4ccc(C(F)(F)F)nc4)c3)(C1)C2)[C@@H]1C[C@@H](O)c2cc(Cl)ccc2O1` [Compound 231, (2S,4R)-6-chloro-4-hydroxy-N-(3-{4-[6-(trifluoromethyl)pyridin-3-yl]-1H-imidazol-1-yl}bicyclo[1.1.1]pentan-1-yl)-3,4-dihydro-2H-1-benzopyran-2-carboxamide], `O=C(NC12CC(C3=NOC([C@H]4C[C@@H](OC(F)(F)F)C4)C3)(C1)C2)[C@@H]1C[C@@H](O)c2cc(Cl)ccc2O1` (stereo partly drawn) [Compound 233, (2S,4R)-6-chloro-4-hydroxy-N-(3-{5-[cis-3-(trifluoromethoxy)cyclobutyl]-4,5-dihydro-1,2-oxazol-3-yl}bicyclo[1.1.1]pentan-1-yl)-3,4-dihydro-2H-1-benzopyran-2-carboxamide] is higher in EC50: 10 to 50 nM for the first, 500 to 2000 nM for the second. The first is the more potent here.
